{"source": "patent US8114406B2", "about": "“Peptides and their utility in modulation of behavior of cells expressing α3β1 integrins” (The United States of America as represented by the …, priority 1999, dated 2012)", "key": {"MDA-MB-435 cells": {"test_system": "MDA-MB-435 cells", "test": "MDA-MB-435 cell chemotaxis in modified Boyden chambers", "format": "cell-based, human", "conditions": "peptide in lower well; 7 h", "description": "FIGS. 10A and 10B display the measurement of MDA-MB-435 cell chemotaxis. Panel A: Dose-dependence for stimulation of MDA-MB-435 cell motility by peptide 678 added to the lower well of a modified Boyden chamber. Cells migrated to the lower surface of an 8 μm pore polycarbonate filter were quantified microscopically after 7 h, mean±SD, n=3 for a representative experiment. […] Chemotaxis of untreated cells (striped bars) or cells treated with 10 nM IGF1 in the upper chamber (solid bars) was determined after 7 h and is presented as mean±S.D., n=3."}, "[1]": {"test_system": "MDA-MB-435 breast carcinoma cells", "protocol": "MDA-MB-435 cell adhesion to microliter plate wells coated with 5 uM peptide 678 was determined in the presence of the indicated concentrations of soluble carboxamidomethyl-peptide 716 or peptide 716 covalently linked to FICOLL™ as previously described (Guo et al., 1997). After washing twice to remove unattached cells, adherent cells were quantified by detection of cellular hexosaminidase using p-nitrophenyl-N-acetylglucosaminide as substrate. Released p-nitrophenol was detected by absorbance at 405 nm. Results are mean+/−SD, n=3.\nIn this case, the adherent cells are quantified by detection of cellular hexosaminidase using p-nitrophenyl-N-acetylglucosaminidine as substrate. Released p-nitrophenol is detected by absorbance at 405 nm."}, "BAE cells [2]": {"test_system": "BAE cells", "conditions": "added in solution", "protocol": "(§2) Briefly, 100 μl of a 5×10^4 cell/ml suspension of BAE cells were seeded in triplicate into 96 well tissue culture plate in DMEM medium containing 1% FCS, 10 ng/ml of FGF2 and peptides at 1-40 μM concentrations. Cells were incubated for 72 h, and proliferation was measured using the Celltiter tetrazolium assay (Promega). […] Proliferation was determined at 72 h, and is presented as a percent of the control, mean±S.D., n=3 for experimental points and n=6 for control. […] FIG. 19E: HDME cell proliferation in MCDB growth medium with 5% FCS was determined in the presence of 10 ng/ml FGF2 and the indicated concentrations of TSP1 added in the medium (Δ) or immobilized on the substrate (●) or in wells coated with the indicated concentrations of peptide 678 (●).\n(§3) Cell proliferation was measured using the Cell-Titer colorimetric assay (Promega) as previously described (Vogel et al., 1993). A 100 μl volume of BAE cell suspension at 50,000 cells/ml in DMEM containing 1% FBS and supplemented with 10 ng/ml FGF2 was plated in triplicate in 96 well tissue culture plates either in the presence of peptides in solution or in wells that were pre-coated with 100 μl of the peptides at 40° C. overnight and aspirated just before adding cells. Cells were grown for 72 hours at 37° C. in a humidified incubator with 5% CO2. […] HDME cell proliferation was measured in MCDB growth medium without heparin, VEGF, or FGF2."}, "HDME cells [3]": {"test_system": "HDME cells", "test": "HDME cell spreading on coated substrates", "format": "cell-based, human", "description": "Spreading was determined microscopically for cells with no additions, in the presence of 10 μM peptide 678, or in the presence of 30 μM of the control peptide 690. Results are presented as mean±SD, n=3. […] The percent spread cells was determined at 60 min.\n(§1) Adhesion assays of cells other than small cell lung carcinoma (SCLC)-Adhesion was measured on polystyrene or glass substrates coated with peptides or proteins as previously described (Guo et al., 1992). Peptides dissolved in PBS at 0.4 to 50 μM were incubated in polystyrene microliter plate wells overnight at 4° C. The wells were washed 3 times with distilled water. Adsorbed peptide was quantified using the BCA assay (Pierce Chemical) measuring absorbance at 570 and 630 nm as described by the supplier's protocol. The assay for adsorption was calibrated using purified peptide in solution as a standard. After blocking with 1% BSA in Dulbecco's PBS, adhesion assays were performed by adding cells suspended in DMEM (BAE cells) or medium 199 (human cells) containing 1 mg/ml BSA. Cell attachment and spreading was quantified microscopically."}, "BAE cells [4]": {"test_system": "BAE cells", "test": "Scratch wound repair of BAE cells", "format": "cell-based, bovine", "conditions": "cells arrested using 5-fluorouracil; 24 h", "description": "BAE cells were seeded at a density of 2×10^5 cells/well of 6 well tissue culture plates in complete growth medium supplemented with 10% FBS. After the cells formed a confluent cobblestone, cells were arrested using 10 μg/ml 5-fluorouracil for 48 h. Scrape wounds of 2 mm, width were made in the wells, and the cells were further incubated with medium containing 10% FBS, 10 μg/ml 5 fluorouracil and peptides 678, 709, or 690. Measurements of the distance between the wound margins were taken at 0 and 24 h, and the net migration is expressed as mean±SEM for triplicates.\nThe in vitro wound healing assay used was a slight modification of that described by Joyce et al. (Joyce et al., 1989). A confluent monolayer of BAE cells pretreated with 10 μg/ml 5-fluorouracil for […] were used in this assay. […] Mitosis of the BAE cells in the monolayers was inhibited by addition of 5-fluorouracil, so that the rate of wound closure was due solely to the migration of cells into the wound sites. The distances between the wound margins were measured as soon as the wound was made and 24 hours later using a grid incorporated into the eye piece of the microscope. All data represent the results obtained from three independent scratch wounds for each peptide tested."}, "[5]": {"test_system": "chick chorioallantoic membrane (CAM) angiogenesis", "test": "Chick chorioallantoic membrane (CAM) angiogenesis assay", "format": "in vivo, chicken", "conditions": "for Angiogenic response (% inhibition): relative to control gels, mean ± SD", "description": "Fertilized Leghorn chicken eggs were obtained from Ramona Duck farm (Westminster, Calif.). At day 3 of development, the embryos were placed on 100 mm petri dishes. Assays were performed as previously described (Iruela-Arispe et al., 1999). […] Peptides were filtered on Centricon P100 prior to their analysis on the CAM assays to eliminate traces of endotoxin. Pellets were applied to the outer ⅓ of the CAM, and the assay was performed for 24 h. Detection of capillary growth was done by injection of FITC-dextran in the bloodstream and observation of the pellets under a fluorescent inverted microscope. Positive controls (growth factors and vehicle), as well as negative controls (vehicle alone) were placed in the same CAM and used as reference of 100% stimulation or baseline inhibition (0%), and response to the peptides was determined according to these internal controls. Assays were performed in duplicate in each CAM and in four independent CAMs (total of 8 pellets)."}, "HUVEC": {"test_system": "HUVEC", "test": "HUVEC spreading on coated substrates", "format": "cell-based, human", "conditions": "for percent spread HUVEC on immobilized substrate: data not shown", "description": "FIGS. 14A, 14B and 14C display α3β1 and αvβ3 integrin-mediated spreading of endothelial cells on thrombospondin-1. […] Results are expressed as percent of the response for untreated cells, mean±S.D., n=3.\nas §1"}, "OH1 SCLC cells": {"test_system": "OH1 SCLC cells", "format": "cell-based, human", "conditions": "72 h", "description": "Net, proliferation was determined by the CellTiter assay (Promega) and is presented as mean±SD, n=3. […] The cells were fixed and photographed using Nomarski optics. Bar=100 μm. […] Panel E: α3β1 Integrin ligands cooperate with EGF to inhibit OH1 cell proliferation. […] Net proliferation is presented as a percent of the -EGF control (mean±SD, n=3 for treated groups and n=6 for control groups).\nProteins and peptides were immobilized on Nunc Maxisorp 96 well plates by overnight incubation with the proteins or peptides dissolved in 50 μl of sterile Dulbecco's PBS. The supernatant fluid was removed, and the wells were incubated for 30 min. in DPBS containing 1% BSA. OH1 cells (1×10^4/well) were added in RPMI containing 15% FCS and incubated for 72 h at 37° in 5% CO2. For assessing inhibition by soluble proteins or peptides, OH1 cells were grown in suspension in Nunclon 96 well tissue culture plates using the same medium."}, "[6]": {"test_system": "MDA-MB-435 breast carcinoma cells", "test": "Inhibition of MDA-MB-435 cell adhesion to immobilized peptide 678 (microscopic adhesion assay)", "format": "cell-based, human", "description": "as §1"}, "HDME cells [7]": {"test_system": "HDME cells", "test": "HDME cell proliferation", "format": "cell-based, human", "protocol": "as §2, §3"}}, "note": "pIC50: −log10 of the molar value. Where two headings read alike, the source gives them in different places. Where no end group is shown, it is not given here.", "data": [{"sequence": "FQGVLQNVRFVF [Peptide 678]", "values": [{"measurement": "concentration of maximal chemotactic response", "setting": "MDA-MB-435 cells", "value": 10, "unit": "µM"}, {"measurement": "pIC50", "setting": "[1]", "value": 4.82}, {"measurement": "inhibition of BAE cell proliferation", "setting": "BAE cells [2]", "value": "inhibited"}, {"measurement": "percent spread HDME cells on immobilized substrate", "setting": "HDME cells [3]; cells from sparse culture", "value": 28, "unit": "%"}, {"measurement": "percent spread HDME cells on immobilized substrate", "setting": "HDME cells [3]; cells harvested from a confluent monolayer", "value": "No spreading"}, {"measurement": "inhibition of BAE cell migration into the wound", "setting": "BAE cells [4]", "value": "dose-dependent inhibitor"}, {"measurement": "Angiogenic response (% inhibition)", "setting": "[5]; 5 μM peptide", "value": "2 ± 5", "unit": "%"}, {"measurement": "Angiogenic response (% inhibition)", "setting": "[5]; 10 μM peptide", "value": "17 ± 7", "unit": "%"}, {"measurement": "Angiogenic response (% inhibition)", "setting": "[5]; 20 μM peptide", "value": "37 ± 9", "unit": "%"}, {"measurement": "angiogenesis stimulated by FGF2", "setting": "[5]; 20 micromolar", "value": "68±5 % of control"}, {"measurement": "angiogenesis stimulated by VEGF", "setting": "[5]; 20 micromolar", "value": "73±7 % of control"}, {"measurement": "angiogenesis stimulated by a mixture of both growth factors", "setting": "[5]; 20 micromolar", "value": "59±5 % of control"}, {"measurement": "inhibition of HUVEC spreading on vitronectin", "setting": "HUVEC", "value": "not significantly inhibited"}, {"measurement": "inhibition of HUVEC spreading on TSP1", "setting": "HUVEC; 20 μM peptide 678 (FIG. 14B)", "value": "70±7", "unit": "%"}, {"measurement": "percent spread HUVEC on immobilized substrate", "setting": "HUVEC; confluent cells", "value": "3±1", "unit": "%"}, {"measurement": "percent spread HUVEC on immobilized substrate", "setting": "HUVEC; sparse cultures", "value": "12±3", "unit": "%"}, {"measurement": "pIC50", "setting": "OH1 SCLC cells", "value": 5.22}, {"measurement": "IC50", "setting": "[6]; Table 3, 5 μM peptide 678, read-out: IC50 (μM), inhibition of MDA-MB-435 cell adhesion to immobilized peptide 678", "value": 3.5, "unit": "µM"}, {"measurement": "pIC50", "setting": "[6]; microscopic adhesion assay, polystyrene coated with 5 μM peptide 678, peptides in solution, read-out: Inhibition of peptide 678 (IC50)", "value": 5.46}, {"measurement": "HDME cell proliferation after plating on immobilized substance", "setting": "HDME cells [7]", "value": "enhancement"}]}]}
